Measured values reported in patent US7790160B2, “Method of treating CD30 positive lymphomas” (Medarex, Inc., priority 2004, dated 2010).
Entries after “also recorded” stand apart in the source; their conditions may differ. Where a SMILES comes first, the peptide text is derived from it. The star is where a group is joined. Cbz = O=C(OCc1ccccc1)*

Legend:
REH cells [1] = assay: XTT viability assay, CD30-negative control line; conditions: REH cells (do not express CD30), bortezomib alone
From the text: (§5) An XTT-assay showing viability of the Hodgkin cell lines L540 (A), L428 (B) and the ALCL line Karpas299 (C) and the CD30 negative cell line REH (E) after exposure to increasing amounts of bortezomib in the presence (diamond) or absence (triangle) of 5F11.

[2] = tested on: NF-κB-responsive luciferase reporter gene in L428 cells; assay: Transient transfection and luciferase reporter gene assay; type: cell-based, human; conditions: L428 transfected with pNF-κB-luc
Experimental: L428 cells were transfected with either the reporter constructs pCMV-luc (transfection control) or pNF-κB-luc (bar 2-4) or pNF-κB-luc together with the expression vector IkBM (bar 5-7). The transfection efficacy was about 10% and the total amount of DNA was kept constant. After an over night recovery period transfectants were treated with PBS (basal), 5F11 or bortezomib for 24 hours. The luciferase activity (RLU) of the cells were measured and is given to indicate the relative levels of NF-κB-dependent promoter activity.
5×10^6 L428 cells in 1 ml medium were transiently transfected by means of electroporation with 10 μg NF-κB-luc, IkBaM and CMV-GFP. Cells were seeded into six-well plates with additional 2 ml of plain medium. After 24 h incubation at 37° C., GFP transfected cells were examined for green flourescence as indicator of transfection efficacy, which varied from 5% to 10%. Cells were incubated either with 20 μg/ml 5F11+100 μg/ml GaH for 2 h, or with 10 ng/ml bortezomib or both or plain media for 12 h at 37° C. After harvesting the cells were washed twice in PBS (phosphate buffered saline).
Lysis was performed using 1 ml ice-cold reporter lysis buffer (Promega), and lysates were frozen at −70° C. for 1 hour. Luciferase activity was measured using 30 μl lysate in a 96-well luminometry-plate and analyzed by luminometry. Untreated cells, transfected with the reporter gene were used to obtain baseline NF-κB-activity. All assays were done in triplicate to obtain means and standard deviations.

[3] = tested on: subcutaneous L540Cy Hodgkin tumors; assay: Xenograft model of human HD; type: in vivo; conditions: SCID mice; for tumor growth compared to the control group receiving PBS: 100 μg 5F11 i.p., 10 ng bortezomib i.v. 6 hours later, 4 injections; for tumor growth in the weeks after treatment: several weeks after the 4 injections
Experimental: FIG. 3: Effect of 5F11 and bortezomib on the tumor growth of subcutaneous L540Cy Hodgkin tumors in SCID mice. The mice were randomly divided into four groups when the L540 derived tumors reached a volume of about 100 mm3 to receive PBS, 5F11 (100 μg), bortezomib (10 ng) or the combination of 5F11 and bortezomib. The tumor volume of each mouse is given. The arrows indicate the days of treatment.
The xenograft model of human HD has been described previously (17). Subcutaneous solid L540Cy tumors were established by injection of L540Cy cells (1×10^7) resuspended in 200 μL PBS into the right flank of pathogen-free severe combined immunodeficiency (SCID) mice (FOX CHASE SCID; Taconic M&B A/S, Ry, Denmark). Tumor development was measured every 3 days and the tumor volume was determined using the formula (length×width×height/2). Animals with established tumors of about 100 mm^3 were divided randomly into four groups, which received 100 μg 5F11 (in 200 μL PBS intraperitoneally) and 6 hours later 10 ng bortezomib i.v. by tail vein or each agent alone for a total of 4 injections. Control mice received PBS only. The experiment was stopped and the mice killed when the median […] in the control group exceeded 2500 mm^3 (day 50). The treatment and control groups consisted of 4 animals each and results were confirmed by repeating the experiments.

c-flip in L540 cells = assay: SDS-PAGE and Western blotting; type: cell-based, human; conditions: CD30 stimulation with 5F11, co-incubation with bortezomib for 6, 8 and 16 hours
Experimental: (§1) Whole cell protein extracts were prepared in 1× Laemmli solution (10 μg) were separated using sodium dodecyl sulfate polyacrylamide gel electrophoresis (SDS-PAGE) using 4-15% gels. Proteins were transferred to a nitrocellulose membrane (Hybond-C, Amersham Pharmacia Biotech Inc., Freiburg, Germany) and blocked with Roti-Block (Roth, Karlsruhe, Germany) for 1 h at room temperature. Immunoblots were incubated with the primary antibodies obtained from the Apoptosis Sampler Kits I and II (BD Bioscience, CA) in PBS with 10% fetal calf serum as recommended. The c-flip specific antibody was purchased from Sigma (F-6550). Bound antibodies were detected with horseradish peroxidase-conjugated secondary donkey-anti-mouse or rabbit-IgG mAb (Dianova, Hamburg, Germany) or horseradish peroxidaseconjugated goat-anti-mouse IgG (Dianova) diluted 1/10000. The proteins were visualized using the ECL Western blotting detection reagents (Amersham Pharmacia) according to manufacturers instructions.

c-flip in L428 cells = assay: SDS-PAGE and Western blotting; type: cell-based, human; conditions: CD30 stimulation with 5F11, co-incubation with bortezomib for 6, 8 and 16 hours
Experimental: as §1

[4] = tested on: bcl-2, bax, TRADD and FADD; assay: SDS-PAGE and Western blotting of candidate proteins related to NF-κB activation; type: cell-based, human; conditions: following 5F11 crosslinking or bortezomib treatment
Experimental: as §1

Karpas 299 cells = assay: XTT viability assay; conditions: Karpas299, 5F11 + GaH pre-incubated 30 minutes, versus absence of 5F11, 48 hours
[5] = tested on: NF-κB subunit p65 in L540 cells; assay: Detection of NF-κB subunit p65 with indirect immunofluorescence; type: cell-based, human; conditions: for expression level and nuclear localisation of NF-κB (p65 staining): L540 cells, crosslinked 5F11 or bortezomib
Experimental: (§2) Cytospins were provided (1 min at 1000 U/min) to determine the effect of 5F11 and/or bortezomib on apoptosis and NFκB-activation in L428 and L540 cells on the single cell level. 2×10^5 cells were seeded in six-well microtiter plates in 3 ml plain media (control) or with 5F11+GaH (5 μg/25 μg per ml) or bortezomib (10 nM) or both. Incubation time was 30 min for 5F11, 1 h for crosslinking GaH and at least six hours for bortezomib, all at 37° C. The slides were dried overnight at room temperature and fixed using ice-cold acteone (30 sec incubation). The TUNEL assay was performed using the In Situ Cell Death Detection Kit, TMR red (Roche) according to the manufacturers instructions. Finally, cells were mounted with VECTASHIELD Mounting Medium containing DAPI (Vector Laboratories, Burlingame, Calif.) or stained with an rabbit-anti-p65 antibody (Santa Cruz, 10 nM) and a second FITC-labeled mouse-anti-rabbit antibody (10 nM). Cytospin preparations were analyzed by fluorescence microscopy.
In order to exclude non-specific antibody binding, slides of untreated cells were stained either with rabbit-anti-p65-IgG, or FITC-conjugated mouse-anti-rabbit-IgG, or DAPI.

L540 cells [6] = assay: XTT viability assay; type: cell-based, human
From the text: (§3) Each measurement was done in triplicate.

L428 cells [7] = assay: XTT viability assay; type: cell-based, human
From the text: as §3

L540 cells [8] = assay: Annexin V binding assay (annexinV-FITC staining, FACS); type: cell-based, human; conditions: each agent alone, subtoxic concentrations
Experimental: FIG. 1: Induction of apoptosis in L540 cells after treatment with 5F11 and MG132 L540 cells were cultured for 16 h with PBS (control), crosslinked 5F11, MG132 or a combination of 5F11 and MG132. The apoptotic cells were labeled by annexinV-FITC staining and the percentage of viable and apoptotic cells is given as estimated in FACS analysis. The results of three independent experiments are shown.
2×10^5 L540 cells were incubated (in triplicate) either with 5F11/GaH, bortezomib, or both, or in plain medium as described above at 37° C. for 12 h. To detect apoptotic cells, the translocation of phosphatidylserine to the outer leaflet of the plasma membrane was determined by flow cytometry (FACS calibur Bengton & Dickinson Flow Cytometer) after staining with annexin V conjugated to fluorescein as recommended (Annexin V-FITC apoptosis detection kit I, BD Bioscience, USA). Triplicateswere used to calculate means and standard deviations.

L540 cells [9] = assay: TUNEL assay with 5F11 binding staining (GaH-FITC); type: cell-based, human
Experimental: as §2
The cellular reponse to 5F11 in the partial apoptosis-resistent HD-derived cell line L540 on the single cell level was analyzed. To visualize binding of 5F11 and apoptosis simultaneously, L540 cells were incubated with 5F11 and a FITC labeled crosslinking goat-anti human antibody before performing a TUNEL assay. […]

[10] = tested on: NF-κB DNA binding in L540 cells; assay: Electrophoretic mobility shift assay (EMSA); type: cell-based, human; conditions: L540 nuclear extract, crosslinked antibody
Experimental: (§4) Electrophoretic mobility shift assays (EMSA) were performed to visualize binding of NF-κB to DNA. Nuclear protein extract (5 μg; 20 mM HEPES, pH 7.9, 400 mM NaCl, 1 mM EDTA, 1 mM EGTA) from cells treated with different antibodies were incubated with ^32P-labeled oligonucleotides with the NF-κB binding sequence (Santa Cruz) for 30 minutes at room temperature. The DNA/protein complexes were separated using electrophoresis on 6% native polyacrylamide gels.

[11] = tested on: NF-κB DNA binding in L428 cells; assay: Electrophoretic mobility shift assay (EMSA); type: cell-based, human; conditions: L428 nuclear extract, crosslinked antibody
Experimental: as §4

REH cells [12] = tested on: REH cells
From the text: as §5

L428 cells [13] = conditions: 5F11 alone, even at higher concentrations (ref. 17); cited from earlier work

Molecule | tumor growth compared to the control group receiving PBS [3] | tumor growth in the weeks after treatment [3] | expression of c-flip (Western blotting) (c-flip in L540 cells) | expression of c-flip (Western blotting) (c-flip in L428 cells) | bcl-2 and bax expression (Western blotting) [4] | expression levels of TRADD and FADD (Western blotting) [4] | expression level and nuclear localisation of NF-κB (p65 staining) [5] | enhancement of apoptosis compared to the control (annexin-V staining and FACS analysis) (L540 cells [8]) | also measured
CC(C)C[C@H](NC(=O)[C@H](Cc1ccccc1)NC(=O)c1cnccn1)B(O)O [bortezomib, reference compound] | significantly delayed tumor growth | tumor progression | downregulation | downregulation | Only minor changes | remained unaltered | exclusion of NF-κB from the cell nuclei |  | cytotoxicity (XTT) (REH cells [1]): killed by bortezomib in a dose dependent manner; 5F11-induced activation of the NF-κB reporter gene in the presence of bortezomib [2]: supressed; basal activity of the NF-κB reporter [2]: reduced; IC50 of bortezomib in the presence of 5F11 (Karpas 299 cells): decreased; 5F11-induced NF-κB staining increase and nuclear accumulation in the presence of bortezomib ([5]; L540, bortezomib given 30 minutes after 5F11 stimulation, observed after 6 and 8 hours): inhibited; IC50 of bortezomib in the presence of 5F11 (L540 cells [6]; L540, 5F11 + GaH pre-incubated 30 minutes, versus absence of 5F11, 48 hours): decreased; cell viability (XTT) (L540 cells [6]; L540, bortezomib 25 ng/ml, with or without pre-treatment with subtoxic 5F11 + GaH, 48 h): minimal reduction of viability; IC50 of bortezomib in the presence of 5F11 (L428 cells [7]; L428, 5F11 + GaH pre-incubated 30 minutes, versus absence of 5F11, 48 hours): decreased
CC(C)C[C@@H](C=O)NC(=O)[C@H](CC(C)C)NC(=O)[C@H](CC(C)C)NC(=O)OCc1ccccc1 [MG132, carbobenzoxyl-leucinyl-leucynil-leucynal, reference compound] (Cbz-Leu-Leu-Leu-aldehyde) |  |  |  |  |  |  |  | did not enhance apoptosis | 
5F11: fully human monoclonal antibody directed against CD30; VH SEQ ID NO: 10, VL SEQ ID NO: 12 (antibody, listed as Homo sapiens, V domains shown) VH: QVQLQQWGAGLLKPSETLSLTCAVYGGSFSAYYWSWIRQPPGKGLEWIGDINHGGGTNYNPSLKSRVTISVDTSKNQFSLKLNSVTAADTAVYYCASLTAYWGQGSLVTVSS VL: DIQMTQSPTSLSASVGDRVTITCRASQGISSWLTWYQQKPEKAPKSLIYAASSLQSGVPSRFSGSGSGTDFTLTISSLQPEDFATYYCQQYDSYPITFGQGTRLEIK | significantly delayed tumor growth | tumor progression | induced strongly | induced strongly | Only minor changes | remained unaltered | increased; also recorded: nuclear accumulation | did not enhance apoptosis | binding of 5F11 (staining with GaH-FITC) (L540 cells [9]; L540 cells incubated with 5F11 and FITC labeled crosslinking goat-anti human antibody): All L540 cells were stained; apoptosis on the single cell level (TUNEL assay) (L540 cells [9]; L540 cells, 5F11 crosslinked with GaH, subtoxic concentrations in the combination): only a subset of the cells were rendered apoptotic; activation of the NF-κB reporter gene (luciferase activity) ([2]; stimulation with 5F11): about two-fold; DNA-binding activity of NF-κB (EMSA) [10]: enhanced DNA binding; DNA-binding activity of NF-κB (EMSA) [11]: enhanced DNA binding; effect of pre-incubation with 5F11 on the cytotoxic potential of bortezomib (REH cells [12]): no effect; sensitivity of L428 cells to 5F11 (L428 cells [13]): resistant; enhancement of the cytotoxic activity of bortezomib, reversed sequence (L428 cells [7]; L428 first incubated with bortezomib for 30 minutes, then with the antibody): does not increase; also recorded: did not enhance
